Columns and labels:
[1] = target: GDP-bound HRAS wild-type protein (Homo sapiens, UniProt P01112); test: Binding to HRAS by surface plasmon resonance (SPR), Single Cycle Kinetics; settings: ratio of KD for GDP-bound HRAS wild-type protein to KD for KRAS, SPR
[2] = target: GDP-bound NRAS wild-type protein (Homo sapiens, UniProt P01111); test: Binding to NRAS by surface plasmon resonance (SPR), Single Cycle Kinetics; settings: ratio of KD for GDP-bound NRAS wild-type protein to KD for KRAS, SPR
[3] = test system: human lung cancer strain NCI-H441; test: cells; settings: NCI-H441, 96 h, read-out: NCI-H441 IC50 (nM), NCI-H441 cell proliferation, 4 days, CellTiter-Glo;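 note: cell proliferation inhibition after four days measured by CellTiter-Glo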
[4] = target: GDP-bound KRAS wild-type protein (Homo sapiens, UniProt P01116); test: Binding to KRAS by surface plasmon resonance (SPR), Single Cycle Kinetics; settings: SPR, Single Cycle Kinetics, GDP-bound KRAS wild-type protein; read-out: KRAS KD
Sequence of GDP-bound KRAS wild-type protein (P01116 whole entry): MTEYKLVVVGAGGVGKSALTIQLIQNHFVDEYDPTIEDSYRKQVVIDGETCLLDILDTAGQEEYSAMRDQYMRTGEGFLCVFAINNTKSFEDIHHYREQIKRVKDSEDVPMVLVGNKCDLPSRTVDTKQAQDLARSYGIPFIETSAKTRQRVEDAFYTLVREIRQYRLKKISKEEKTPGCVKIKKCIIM

Sequence of GDP-bound HRAS wild-type protein (P01112 whole entry): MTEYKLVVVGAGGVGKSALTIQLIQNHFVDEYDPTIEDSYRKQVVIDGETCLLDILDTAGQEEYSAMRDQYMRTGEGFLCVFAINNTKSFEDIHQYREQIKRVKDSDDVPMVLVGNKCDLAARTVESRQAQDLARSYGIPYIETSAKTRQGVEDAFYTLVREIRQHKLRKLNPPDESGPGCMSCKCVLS
Sequence of GDP-bound NRAS wild-type protein (P01111 whole entry): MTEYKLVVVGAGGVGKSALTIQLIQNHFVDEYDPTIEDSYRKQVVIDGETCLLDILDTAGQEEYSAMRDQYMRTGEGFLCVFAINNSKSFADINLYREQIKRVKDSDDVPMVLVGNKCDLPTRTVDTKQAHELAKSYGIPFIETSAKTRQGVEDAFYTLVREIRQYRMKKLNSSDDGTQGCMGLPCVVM

Row | Compound | HRAS/KRAS (KD ratio) [1] | NRAS/KRAS (KD ratio) [2] | IC50 [3] [nM] | Kd [4] [nM]
1 | CCO[C@@H]1C[C@H]2C(=O)NC3(CC(F)(F)C3)C(=O)N(C)[C@@H](C3CCCC3)C(=O)N(C)[C@H](CC)CC(=O)N(C)[C@@H](CC)C(=O)N[C@@H]([C@@H](C)CC)C(=O)N(C)CC(=O)N(C)[C@H]3C/C=C\CCN(C3=O)[C@@H](Cc3ccc(C(F)(F)F)cc3)C(=O)N(C)CC(=O)N[C@@H](CCc3cc(F)c(C(F)(F)F)c(F)c3)C(=O)N2C1 [PP1627] | A (a compound having 10 or more and less than 20 is denoted as A) | A (a compound having 10 or more and less than 20 is denoted as A) | 22.9 | 0.25
2 | CCC[C@H]1C(=O)N[C@@H]([C@@H](C)CC)C(=O)N(C)CC(=O)N(C)[C@H]2C/C=C\CCN(C2=O)[C@@H](Cc2ccc(C(F)(F)F)cc2)C(=O)N(C)CC(=O)N[C@@H](CCc2cc(F)c(C(F)(F)F)c(F)c2)C(=O)N2CC(F)(F)C[C@H]2C(=O)NC2(CC(C)(C)C2)C(=O)N(C)[C@@H](C2CCCC2)C(=O)N(C)[C@H](C(=O)N(C)C)CC(=O)N1C [PP1711] | B (a compound having 3 or more and less than 10 is denoted as B) | A (a compound having 10 or more and less than 20 is denoted as A) | 5 | 0.093
3 | CC[C@H](C)[C@@H]1NC(=O)[C@H](CC2CC2)N(C)C(=O)C[C@@H](C(=O)N(C)C)N(C)C(=O)[C@H](C2CCCC2)N(C)C(=O)C2(CC(C)(C)C2)NC(=O)[C@@H]2CC(F)(F)CN2C(=O)[C@H](CCc2cc(F)c(C(F)(F)F)c(F)c2)NC(=O)CN(C)C(=O)[C@H](Cc2ccc(C(F)(F)F)cc2)N2CC/C=C\C[C@@H](C2=O)N(C)C(=O)CN(C)C1=O [PP1713] | A (a compound having 10 or more and less than 20 is denoted as A) | A (a compound having 10 or more and less than 20 is denoted as A) | 7.9 | 0.096
4 | CCCOC[C@H]1C(=O)N[C@@H]([C@@H](C)CC)C(=O)N(C)CC(=O)N(C)[C@H]2C/C=C\CCN(C2=O)[C@@H](Cc2ccc(C(F)(F)F)cc2)C(=O)N(C)CC(=O)N[C@@H](CCc2cc(F)c(C(F)(F)F)c(F)c2)C(=O)N2C[C@H](OCC)C[C@H]2C(=O)NC2(CCC2)C(=O)N(C)[C@@H](C2CCCC2)C(=O)N(C)[C@H](C(=O)N(C)CCC)CC(=O)N1C [PP1668] | A (a compound having 10 or more and less than 20 is denoted as A) | A (a compound having 10 or more and less than 20 is denoted as A) | 5.3 | 0.13
5 | CCO[C@@H]1C[C@H]2C(=O)NC3(CC(C)(C)C3)C(=O)N(CC)[C@@H](C3CCCC3)C(=O)N(C)[C@H](C(=O)N(C)C)CC(=O)N(C)[C@@H](CC)C(=O)N[C@@H]([C@@H](C)CC)C(=O)N(C)CC(=O)N(C)[C@H]3C/C=C\CCN(C3=O)[C@@H](Cc3ccc(C(F)(F)F)cc3)C(=O)N(C)CC(=O)N[C@@H](CCc3cc(F)c(C(F)(F)F)c(F)c3)C(=O)N2C1 [PP1913] | A (a compound having 10 or more and less than 20 is denoted as A) | A (a compound having 10 or more and less than 20 is denoted as A) | 44 | 0.37
6 | CCC[C@H]1C(=O)N[C@@H]([C@@H](C)CC)C(=O)N(C)CC(=O)N(C)[C@H]2C/C=C\CCN(C2=O)[C@@H](Cc2ccc(C)cc2)C(=O)N(C)CC(=O)N[C@@H](CCc2ccc(C(F)(F)F)c(Cl)c2)C(=O)N2C[C@H](OCC)C[C@H]2C(=O)NC2(CCC2)C(=O)N(C)[C@@H](C2CCCC2)C(=O)N(C)[C@H](C(=O)N(C)CC)CC(=O)N1C [PP1895] | B (a compound having 3 or more and less than 10 is denoted as B) | A (a compound having 10 or more and less than 20 is denoted as A) | 15.6 | 0.13
7 | CCO[C@@H]1C[C@H]2C(=O)NC3(CCC3)C(=O)N(C)[C@@H](C3CCCC3)C(=O)N(C)[C@H](C(=O)N(C)C)CC(=O)N(CC)[C@@H](CC(C)C)C(=O)N[C@@H]([C@@H](C)CC)C(=O)N(C)CC(=O)N(C)[C@H]3C/C=C\CCN(C3=O)[C@@H](Cc3ccc(C(F)(F)F)cc3)C(=O)N(C)CC(=O)N[C@@H](CCc3cc(F)c(C(F)(F)F)c(F)c3)C(=O)N2C1 [PP1765] | A (a compound having 10 or more and less than 20 is denoted as A) | A (a compound having 10 or more and less than 20 is denoted as A) | 16.8 | 0.084
8 | CC[C@H](C)[C@@H]1NC(=O)[C@H](C(C)C)N(C)C(=O)C[C@@H](C(=O)N(C)C)N(C)C(=O)[C@H](C2CCCC2)N(C)C(=O)C2(CC(C)(C)C2)NC(=O)[C@@H]2C[C@H](C)CN2C(=O)[C@H](CCc2ccc(C(F)(F)F)c(OC)c2)NC(=O)CN(C)C(=O)[C@H](Cc2ccc(C(F)(F)F)cc2)N2CC/C=C\C[C@@H](C2=O)N(C)C(=O)CN(C)C1=O [PP2005] | A (a compound having 10 or more and less than 20 is denoted as A) | A (a compound having 10 or more and less than 20 is denoted as A) | 10.7 | 0.13
9 | CC[C@H](C)[C@@H]1NC(=O)[C@H](CC(C)C)N(C)C(=O)C[C@@H](C(=O)N(C)CC)N(C)C(=O)[C@H](C2CCCC2)N(C)C(=O)C2(CC(C)(C)C2)NC(=O)[C@@H]2C[C@H](C)CN2C(=O)[C@H](CCc2ccc(C(F)(F)F)c(OC)c2)NC(=O)CN(C)C(=O)[C@H](Cc2ccc(C)cc2)N2CC/C=C\C[C@@H](C2=O)N(C)C(=O)CN(C)C1=O [PP1906] | A (a compound having 10 or more and less than 20 is denoted as A) | A (a compound having 10 or more and less than 20 is denoted as A) | 10.8 | 0.15
10 | CC[C@H](C)[C@@H]1NC(=O)[C@H](CC(C)C)N(C)C(=O)C[C@@H](C(=O)N(C)CC)N(C)C(=O)[C@H](C2CCCC2)N(C)C(=O)C2(CCC2)NC(=O)[C@@H]2C[C@H](C)CN2C(=O)[C@H](CCc2ccc(C(F)(F)F)c(OC)c2)NC(=O)CN(C)C(=O)[C@H](Cc2ccc(C)cc2)N2CC/C=C\C[C@@H](C2=O)N(C)C(=O)CN(C)C1=O [PP1904] | B (a compound having 3 or more and less than 10 is denoted as B) | A (a compound having 10 or more and less than 20 is denoted as A) | 18.3 | 0.12
11 | CCCOC[C@H]1C(=O)N[C@@H]([C@@H](C)CC)C(=O)N(C)CC(=O)N(C)[C@H]2C/C=C\CCN(C2=O)[C@@H](Cc2ccc(C(F)(F)F)cc2)C(=O)N(C)CC(=O)N[C@@H](CCc2ccc(C(F)(F)F)c(OC)c2)C(=O)N2C[C@@H](C)C[C@H]2C(=O)NC2(CC(C)(C)C2)C(=O)N(C)[C@@H](C2CCCC2)C(=O)N(C)[C@H](C(=O)N(C)CC)CC(=O)N1C [PP1995] | B (a compound having 3 or more and less than 10 is denoted as B) | A (a compound having 10 or more and less than 20 is denoted as A) | 17.8 | 0.21
12 | CCO[C@@H]1C[C@H]2C(=O)NC3(CC(C)(C)C3)C(=O)N(C)[C@@H](C3CCCC3)C(=O)N(C)[C@H](C(=O)N(CC)CC)CC(=O)N(C)[C@@H](CC)C(=O)N[C@@H]([C@@H](C)CC)C(=O)N(C)CC(=O)N(C)[C@H]3C/C=C\CCN(C3=O)[C@@H](Cc3ccc(C)cc3)C(=O)N(C)CC(=O)N[C@@H](CCc3ccc(C(F)(F)F)c(OC)c3)C(=O)N2C1 [PP1881] | A (a compound having 10 or more and less than 20 is denoted as A) | A (a compound having 10 or more and less than 20 is denoted as A) | 16.7 | 0.29
13 | CCC[C@H]1C(=O)N[C@@H]([C@@H](C)CC)C(=O)N(C)CC(=O)N(C)[C@H]2C/C=C\CCN(C2=O)[C@@H](Cc2ccc(C(F)(F)F)cc2)C(=O)N(C)CC(=O)N[C@@H](CCc2cc(F)c(Cl)c(F)c2)C(=O)N2C[C@H](OCC)C[C@H]2C(=O)NC2(CC(C)(C)C2)C(=O)N(C)[C@@H](C2CCCC2)C(=O)N(C)[C@H](C(=O)N(C)C)CC(=O)N1C [PP1758] | A (a compound having 10 or more and less than 20 is denoted as A) | AA (a compound having 20 or more is denoted as AA) | 6 | 0.19
14 | CCCN(C)C(=O)[C@@H]1CC(=O)N(C)[C@@H](CC(F)F)C(=O)N[C@@H]([C@@H](C)CC)C(=O)N(C)CC(=O)N(C)[C@H]2C/C=C\CCN(C2=O)[C@@H](Cc2ccc(C(F)(F)F)cc2)C(=O)N(C)CC(=O)N[C@@H](CCc2cc(F)c(C(F)(F)F)c(F)c2)C(=O)N2C[C@H](OCC)C[C@H]2C(=O)NC2(CC(F)(F)C2)C(=O)N(C)[C@@H](C2CCCC2)C(=O)N1C [PP1733] | A (a compound having 10 or more and less than 20 is denoted as A) | A (a compound having 10 or more and less than 20 is denoted as A) | 3.8 | 0.11
15 | CCCN(C)C(=O)[C@@H]1CC(=O)N(C)[C@@H](CCOC)C(=O)N[C@@H]([C@@H](C)CC)C(=O)N(C)CC(=O)N(C)[C@H]2C/C=C\CCN(C2=O)[C@@H](Cc2ccc(C(F)(F)F)cc2)C(=O)N(C)CC(=O)N[C@@H](CCc2ccc(C(F)(F)F)c(OC)c2)C(=O)N2C[C@H](OCC)C[C@H]2C(=O)NC2(CC(C)(C)C2)C(=O)N(C)[C@@H](C2CCCC2)C(=O)N1C [PP1975] | A (a compound having 10 or more and less than 20 is denoted as A) | A (a compound having 10 or more and less than 20 is denoted as A) | 13.4 | 0.11
